Columns and labels:
Assay in all cases: relative viability (nuclei count vs DMSO), 5 days (fraction); higher = more cells survive
NCI-H23 = system: NCI-H23
Procedure, shortened: (§1)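 The day after seeding in 1536-well plates, lung cancer cell lines were treated by pin tool with a single drug, or with a fixed anchor-drug dose together with five library-drug doses (not always all listed) in √10 steps. After 5 days, a combined fix-and-stain solution (final 0.05% Triton X-100, 1% formaldehyde, 1 ug/ml Hoechst) was added. Nuclei counted on 4× images gave relative viability as treated counts over vehicle counts, reported as the median of duplicate plates.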

HCC-78 = system: HCC-78
Procedure, shortened: as §1

RERF-LC-KJ = system: RERF-LC-KJ
Procedure, shortened: as §1

EKVX = system: EKVX
Procedure, shortened: as §1

EPLC-272H = system: EPLC-272H
Procedure, shortened: as §1

LU99A = system: LU99A
Procedure, shortened: as §1

LK-2 = system: LK-2
Procedure, shortened: as §1

HCC-827 = system: HCC-827
Procedure, shortened: as §1

PC-14 = system: PC-14
Procedure, shortened: as §1

SW 1573 = system: SW 1573
Procedure, shortened: as §1

NCI-H2405 = system: NCI-H2405
Procedure, shortened: as §1

SK-LU-1 = system: SK-LU-1
Procedure, shortened: as §1

NCI-H2126 = system: NCI-H2126
Procedure, shortened: as §1

NCI-H322M = system: NCI-H322M
Procedure, shortened: as §1

NCI-H1563 = system: NCI-H1563
Procedure, shortened: as §1

NCI-H1666 = system: NCI-H1666
Procedure, shortened: as §1

EMC-BAC-2 = system: EMC-BAC-2
Procedure, shortened: as §1

NCI-H1975 = system: NCI-H1975
Procedure, shortened: as §1

LCLC-103H = system: LCLC-103H
Procedure, shortened: as §1

`COc1cc2nccc(Oc3ccc(NC(=O)Nc4cc(C)on4)c(Cl)c3)c2cc1OC` [Tivozanib] + Cc1nc(NC(=O)N2CCC[C@H]2C(N)=O)sc1-c1ccnc(C(C)(C)C(F)(F)F)c1 [Alpelisib] (partner 2 µM) gave a relative viability (NCI-H23; first compound 0.005 µM) of 0.735, a relative viability (NCI-H23; first compound 0.01581 µM) of 0.651 and a relative viability (NCI-H23; first compound 0.05 µM) of 0.615. The relative viability (NCI-H23; first compound 0.1581 µM) was 0.497, the relative viability (NCI-H23; first compound 0.5 µM) was 0.561 and the relative viability (HCC-78; first compound 0.005 µM) was 0.327. It also gave a relative viability (HCC-78; first compound 0.01581 µM) of 0.347, a relative viability (HCC-78; first compound 0.05 µM) of 0.315 and a relative viability (HCC-78; first compound 0.1581 µM) of 0.248. It also gave a relative viability (HCC-78; first compound 0.5 µM) of 0.316, a relative viability (RERF-LC-KJ; first compound 0.005 µM) of 0.729 and a relative viability (RERF-LC-KJ; first compound 0.01581 µM) of 0.757. For the same compound, the relative viability (RERF-LC-KJ; first compound 0.05 µM) was 0.965, the relative viability (RERF-LC-KJ; first compound 0.1581 µM) was 0.689 and the relative viability (RERF-LC-KJ; first compound 0.5 µM) was 0.834. It also gave a relative viability (EKVX; first compound 0.005 µM) of 0.903, a relative viability (EKVX; first compound 0.01581 µM) of 0.93 and a relative viability (EKVX; first compound 0.05 µM) of 0.958. For the same compound, the relative viability (EKVX; first compound 0.1581 µM) was 0.888, the relative viability (EKVX; first compound 0.5 µM) was 0.872 and the relative viability (EPLC-272H; first compound 0.005 µM) was 0.964. It also gave a relative viability (EPLC-272H; first compound 0.01581 µM) of 0.918, a relative viability (EPLC-272H; first compound 0.05 µM) of 1.05 and a relative viability (EPLC-272H; first compound 0.1581 µM) of 0.723. The relative viability (EPLC-272H; first compound 0.5 µM) was 0.862, the relative viability (LU99A; first compound 0.005 µM) was 0.484 and the relative viability (LU99A; first compound 0.01581 µM) was 0.555. For the same compound, the relative viability (LU99A; first compound 0.05 µM) was 0.521, the relative viability (LU99A; first compound 0.5 µM) was 0.469 and the relative viability (LK-2; first compound 0.005 µM) was 0.93. It also gave a relative viability (LK-2; first compound 0.01581 µM) of 1.19, a relative viability (LK-2; first compound 0.05 µM) of 1.55 and a relative viability (LK-2; first compound 0.1581 µM) of 0.84. For the same compound, the relative viability (LK-2; first compound 0.5 µM) was 0.896, the relative viability (HCC-827; first compound 0.005 µM) was 0.902 and the relative viability (HCC-827; first compound 0.01581 µM) was 0.992. For the same compound, the relative viability (HCC-827; first compound 0.05 µM) was 1.04, the relative viability (HCC-827; first compound 0.1581 µM) was 0.98 and the relative viability (HCC-827; first compound 0.5 µM) was 1.02. It also gave a relative viability (PC-14; first compound 0.005 µM) of 0.89, a relative viability (PC-14; first compound 0.01581 µM) of 0.993 and a relative viability (PC-14; first compound 0.05 µM) of 1.07. For the same compound, the relative viability (PC-14; first compound 0.1581 µM) was 0.911, the relative viability (PC-14; first compound 0.5 µM) was 0.873 and the relative viability (SW 1573; first compound 0.005 µM) was 0.796. For the same compound, the relative viability (SW 1573; first compound 0.01581 µM) was 0.825, the relative viability (SW 1573; first compound 0.05 µM) was 0.784 and the relative viability (SW 1573; first compound 0.1581 µM) was 0.639. The relative viability (SW 1573; first compound 0.5 µM) was 0.776, the relative viability (NCI-H2405; first compound 0.005 µM) was 0.776 and the relative viability (NCI-H2405; first compound 0.01581 µM) was 0.878. The relative viability (NCI-H2405; first compound 0.05 µM) was 0.823, the relative viability (NCI-H2405; first compound 0.1581 µM) was 0.737 and the relative viability (NCI-H2405; first compound 0.5 µM) was 0.641. The relative viability (SK-LU-1; first compound 0.005 µM) was 1.01, the relative viability (SK-LU-1; first compound 0.01581 µM) was 1.01 and the relative viability (SK-LU-1; first compound 0.05 µM) was 1.12. The relative viability (SK-LU-1; first compound 0.1581 µM) was 0.645, the relative viability (SK-LU-1; first compound 0.5 µM) was 0.907 and the relative viability (NCI-H2126; first compound 0.005 µM) was 0.708. It also gave a relative viability (NCI-H2126; first compound 0.01581 µM) of 0.757, a relative viability (NCI-H2126; first compound 0.05 µM) of 0.763 and a relative viability (NCI-H2126; first compound 0.1581 µM) of 0.53. It also gave a relative viability (NCI-H2126; first compound 0.5 µM) of 0.734, a relative viability (NCI-H322M; first compound 0.005 µM) of 0.743 and a relative viability (NCI-H322M; first compound 0.01581 µM) of 0.764. For the same compound, the relative viability (NCI-H322M; first compound 0.05 µM) was 0.767, the relative viability (NCI-H322M; first compound 0.1581 µM) was 0.756 and the relative viability (NCI-H322M; first compound 0.5 µM) was 0.84. It also gave a relative viability (NCI-H1563; first compound 0.005 µM) of 0.926, a relative viability (NCI-H1563; first compound 0.01581 µM) of 0.976 and a relative viability (NCI-H1563; first compound 0.05 µM) of 0.972. The relative viability (NCI-H1563; first compound 0.1581 µM) was 0.843, the relative viability (NCI-H1563; first compound 0.5 µM) was 0.835 and the relative viability (NCI-H1666; first compound 0.005 µM) was 1. For the same compound, the relative viability (NCI-H1666; first compound 0.01581 µM) was 0.853, the relative viability (NCI-H1666; first compound 0.05 µM) was 1.06 and the relative viability (NCI-H1666; first compound 0.1581 µM) was 0.965. It also gave a relative viability (NCI-H1666; first compound 0.5 µM) of 1.01, a relative viability (EMC-BAC-2; first compound 0.005 µM) of 0.722 and a relative viability (EMC-BAC-2; first compound 0.01581 µM) of 0.736. For the same compound, the relative viability (EMC-BAC-2; first compound 0.05 µM) was 0.753, the relative viability (EMC-BAC-2; first compound 0.1581 µM) was 0.696 and the relative viability (EMC-BAC-2; first compound 0.5 µM) was 0.774. The relative viability (NCI-H1975; first compound 0.005 µM) was 0.587, the relative viability (NCI-H1975; first compound 0.01581 µM) was 0.652 and the relative viability (NCI-H1975; first compound 0.05 µM) was 0.672. For the same compound, the relative viability (NCI-H1975; first compound 0.1581 µM) was 0.62, the relative viability (NCI-H1975; first compound 0.5 µM) was 0.643 and the relative viability (LCLC-103H; first compound 0.005 µM) was 0.951. It also gave a relative viability (LCLC-103H; first compound 0.01581 µM) of 0.938, a relative viability (LCLC-103H; first compound 0.05 µM) of 1.04 and a relative viability (LCLC-103H; first compound 0.1581 µM) of 0.997. The relative viability (LCLC-103H; first compound 0.5 µM) was 1.01.
